Experimental data published in ChEMBL document CHEMBL1201862, “PubChem BioAssay data set” (2004).
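Step 1: Grow cells in 96-well plates. Step 2: Expose to compound for 48 hours at 5 concentrations. Step 3: Interpolate endpoints linearly; if unreached, use highest concentration. The concentration for 50% growth inhibition is given as GI50.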 Active and inactive are the calls of the source. Cut-off read from the data, not from the text of the source: active = GI50 up to about 1.1 µM and inactive = higher.

Experiments:
Experiment in all cases: NCI anticancer screen, dose series, 48 h
NCI/ADR-RES = tested on: NCI/ADR-RES
Malme-3M = tested on: Malme-3M
UACC-257 = tested on: UACC-257
SK-OV-3 = tested on: SK-OV-3
HCT-15 = tested on: HCT-15
RXF 393 = tested on: RXF 393
HCT-116 = tested on: HCT-116
DU-145 = tested on: DU-145
MOLT-4 = tested on: MOLT-4
A549 = tested on: A549
OVCAR-4 = tested on: OVCAR-4
SK-MEL-28 = tested on: SK-MEL-28
SW-620 = tested on: SW-620
MDA-N = tested on: MDA-N
TK-10 = tested on: TK-10
OVCAR-8 = tested on: OVCAR-8
SF-295 = tested on: SF-295
CCRF-CEM = tested on: CCRF-CEM
A498 = tested on: A498
COLO 205 = tested on: COLO 205

| Compound | GI50 (NCI/ADR-RES) | GI50 (Malme-3M) | GI50 (UACC-257) | GI50 (SK-OV-3) | GI50 (HCT-15) | GI50 (RXF 393) | GI50 (HCT-116) | GI50 (DU-145) | GI50 (MOLT-4) | GI50 (A549) | GI50 (OVCAR-4) | GI50 (SK-MEL-28) | GI50 (SW-620) | GI50 (MDA-N) | GI50 (TK-10) | GI50 (OVCAR-8) | GI50 (SF-295) | GI50 (CCRF-CEM) | GI50 (A498) | GI50 (COLO 205) |
| --- | --- | --- | --- | --- | --- | --- | --- | --- | --- | --- | --- | --- | --- | --- | --- | --- | --- | --- | --- | --- |
| COC(=O)c1ccccc1C#CCCCOS(C)(=O)=O | > 10 µM (inactive) | > 10 µM (inactive) | > 10 µM (inactive) | > 10 µM (inactive) | > 10 µM | > 10 µM (inactive) | > 10 µM (inactive) | > 10 µM (inactive) | > 10 µM (inactive) | > 10 µM (inactive) | > 10 µM (inactive) | > 10 µM (inactive) | > 10 µM (inactive) | > 10 µM (inactive) | > 10 µM (inactive) | > 10 µM (inactive) | > 10 µM (inactive) | > 10 µM (inactive) | > 10 µM (inactive) | > 10 µM (inactive) |
| O=C1c2ccccc2CC12Cc1ccc3c(c1C2=O)CCCC3 (stereo not given) | 7.06 µM (inactive) | 82.2 µM (inactive) | > 100 µM (inactive) | > 100 µM (inactive) | 5.13 µM | 4.13 µM (inactive) | 3.57 µM (inactive) | > 100 µM (inactive) | 4.35 µM (inactive) | 8.05 µM (inactive) | 3.29 µM (inactive) | 47.2 µM (inactive) | 6.32 µM (inactive) | 6.35 µM (inactive) | > 100 µM (inactive) | 26 µM (inactive) | 5.96 µM (inactive) | 49 µM (inactive) | 23.7 µM (inactive) | 13 µM (inactive) |
| O=C(NC1CCCCC1)N1CCNC1=S | > 100 µM (inactive) | > 100 µM (inactive) | > 100 µM (inactive) | > 100 µM (inactive) | > 100 µM | 7.71 µM (inactive) | > 100 µM (inactive) | > 100 µM (inactive) | > 100 µM (inactive) | > 100 µM (inactive) | > 100 µM (inactive) | > 100 µM (inactive) | > 100 µM (inactive) | > 100 µM (inactive) | > 100 µM (inactive) | > 100 µM (inactive) | > 100 µM (inactive) | > 100 µM (inactive) | > 100 µM (inactive) | > 100 µM (inactive) |
| Oc1nnnc2c1sc1ncccc12 | > 100 µM (inactive) | > 100 µM (inactive) | > 100 µM (inactive) | 85.1 µM (inactive) | > 100 µM | > 100 µM (inactive) | > 100 µM (inactive) | > 100 µM (inactive) | > 100 µM (inactive) | > 100 µM (inactive) | > 100 µM (inactive) | > 100 µM (inactive) | > 100 µM (inactive) | > 100 µM (inactive) | > 100 µM (inactive) | > 100 µM (inactive) | > 100 µM (inactive) | > 100 µM (inactive) | 39.8 µM (inactive) | > 100 µM (inactive) |
| CC1=NN(c2nc(N)nc(CSc3cc(Cl)c(C)cc3S(N)(=O)=O)n2)C(C)(C)C1 | > 10 µM (inactive) | > 10 µM (inactive) | > 10 µM (inactive) | > 10 µM (inactive) | > 10 µM | > 10 µM (inactive) | > 10 µM (inactive) | > 10 µM (inactive) | > 10 µM (inactive) | > 10 µM (inactive) | > 10 µM (inactive) | > 10 µM (inactive) | > 10 µM (inactive) | > 10 µM (inactive) | > 10 µM (inactive) | > 10 µM (inactive) | > 10 µM (inactive) | > 10 µM (inactive) | > 10 µM (inactive) | > 10 µM (inactive) |
| C[C@]12C=CC(=O)C=C1CC[C@@H]1[C@@H]2CC[C@]2(C)OC(=O)CC[C@@H]12 [TESTOLACTONE] | > 492 µM (inactive) | 480 µM (inactive) | 389 µM (inactive) | > 479 µM (inactive) | > 488 µM | 437 µM (inactive) | > 466 µM (inactive) | > 343 µM (inactive) | 375 µM (inactive) | 447 µM (inactive) | 486 µM (inactive) | 498 µM (inactive) | > 486 µM (inactive) | > 500 µM (inactive) | 499 µM (inactive) | > 462 µM (inactive) | > 500 µM (inactive) | 431 µM (inactive) | 347 µM (inactive) | 480 µM (inactive) |
